According to publication PMC5007552, “The hVps34‐SGK3 pathway alleviates sustained PI3K/Akt inhibition by stimulating mTORC1 and tumour growth” (The EMBO Journal, 2016):
Where “and” joins values, the source holds several entries; their conditions need not be identical. Equal entries are not always repeated.

Test system: ZR-75-1 cells
Assay: NanoString human kinome mRNA quantification
Format: cell-based
From the text: Human mRNAs were hybridised to NanoString human kinome and control code sets, then subjected to quantification using NanoString software. […] To permit data compaction, and simple kinome‐wide comparisons, the fold changes are log2 transformed. […] Cell pellets were resuspended at a concentration of ~6,500 cells/μl in RLT buffer (Qiagen). […] For total copy numbers, triplicate normalised count values were averaged, and to calculate fold induction, means were divided by triplicate mean values from matched DMSO controls. P‐values were calculated using unpaired t‐test (GraphPad Prism software) by employing treated and control count data for each kinase mRNA.

NC1(c2ccc(-c3nc4ccn5c(=O)[nH]nc5c4cc3-c3ccccc3)cc2)CCC1 [MK-2206]
Normalised counts HIPK1 (HIPK1 mRNA, single replicates): 558.67 and 555.89 and 631.82
Average normalised counts HIPK2 (HIPK2 mRNA, average of 3 replicates): 697.1
Normalised counts HIPK2 (HIPK2 mRNA, single replicates): 690.47 and 698.36 and 702.47
Average normalised counts HIPK3 (HIPK3 mRNA, average of 3 replicates): 924.78
Normalised counts HIPK3 (HIPK3 mRNA, single replicates): 914.99 and 915.54 and 943.81
Average normalised counts HIPK4 (HIPK4 mRNA, average of 3 replicates): 8.793
Normalised counts HIPK4 (HIPK4 mRNA, single replicates): 13.29 and 6.84 and 6.25
Average normalised counts HSPB8 (HSPB8 mRNA, average of 3 replicates): 703.253
Normalised counts HSPB8 (HSPB8 mRNA, single replicates): 670.48 and 739.19 and 700.09
Average normalised counts HUNK (HUNK mRNA, average of 3 replicates): 120.407
Normalised counts HUNK (HUNK mRNA, single replicates): 115.1 and 122.38 and 123.74
Average normalised counts HUS1 (HUS1 mRNA, average of 3 replicates): 872.423
Normalised counts HUS1 (HUS1 mRNA, single replicates): 841.36 and 886.88 and 889.03
Average normalised counts IGF1R (IGF1R mRNA, average of 3 replicates): 2361.57
Normalised counts IGF1R (IGF1R mRNA, single replicates): 2300.25 and 2376.77 and 2407.7
Average normalised counts IKBKB (IKBKB mRNA, average of 3 replicates): 768.703
Normalised counts IKBKB (IKBKB mRNA, single replicates): 749.55 and 764.38 and 792.18
Average normalised counts IKBKE (IKBKE mRNA, average of 3 replicates): 224.477
Normalised counts IKBKE (IKBKE mRNA, single replicates): 217.95 and 203.13
Average normalised counts ILK (ILK mRNA, average of 3 replicates): 435.073
Normalised counts ILK (ILK mRNA, single replicates): 419.6 and 422.1 and 463.52
Average normalised counts INSR (INSR mRNA, average of 3 replicates): 414.107
Normalised counts INSR (INSR mRNA, single replicates): 395.06 and 455.98 and 391.28
Average normalised counts INSRR (INSRR mRNA, average of 3 replicates): 3.12
Normalised counts INSRR (INSRR mRNA, single replicates): 2.39 and 5.97 and 1
Average normalised counts IRAK1 (IRAK1 mRNA, average of 3 replicates): 1144.48
Normalised counts IRAK1 (IRAK1 mRNA, single replicates): 1168.59 and 1134.47 and 1130.37
Average normalised counts IRAK2 (IRAK2 mRNA, average of 3 replicates): 17.2833
Normalised counts IRAK2 (IRAK2 mRNA, single replicates): 12.38 and 18.13 and 21.34
Average normalised counts IRAK3 (IRAK3 mRNA, average of 3 replicates): 4.617
Normalised counts IRAK3 (IRAK3 mRNA, single replicates): 3.29 and 5.1 and 5.46
Average normalised counts IRAK4 (IRAK4 mRNA, average of 3 replicates): 506.37
Normalised counts IRAK4 (IRAK4 mRNA, single replicates): 495.95 and 488.99 and 534.17
Average normalised counts ITK (ITK mRNA, average of 3 replicates): 1.763
Normalised counts ITK (ITK mRNA, single replicates): 3.29 and 1 (2×)
Average normalised counts JAK1 (JAK1 mRNA, average of 3 replicates): 943.323
Normalised counts JAK1 (JAK1 mRNA, single replicates): 967.71 and 921.63 and 940.63
Average normalised counts JAK2 (JAK2 mRNA, average of 3 replicates): 378.063
Normalised counts JAK2 (JAK2 mRNA, single replicates): 379.61 and 384.74 and 369.84
Average normalised counts JAK3 (JAK3 mRNA, average of 3 replicates): 2.113
Normalised counts JAK3 (JAK3 mRNA, single replicates): 1.48 and 3.37 and 1.49
Average normalised counts KALRN (KALRN mRNA, average of 3 replicates): 1
Normalised counts KALRN (KALRN mRNA, single replicates): 1
Average normalised counts KDR (KDR mRNA, average of 3 replicates): 1.163
Normalised counts KDR (KDR mRNA, single replicates): 1 (2×) and 1.49
Average normalised counts KIAA1804 (KIAA1804 mRNA, average of 3 replicates): 209.647
Normalised counts KIAA1804 (KIAA1804 mRNA, single replicates): 226.9 and 199.7 and 202.34
Average normalised counts KIT (KIT mRNA, average of 3 replicates): 1
Normalised counts KIT (KIT mRNA, single replicates): 1
Average normalised counts KSR1 (KSR1 mRNA, average of 3 replicates): 15.5767
Normalised counts KSR1 (KSR1 mRNA, single replicates): 14.2 and 11.19 and 21.34
Average normalised counts KSR2 (KSR2 mRNA, average of 3 replicates): 58.27
Normalised counts KSR2 (KSR2 mRNA, single replicates): 61.47 and 55.49 and 57.85
Average normalised counts LATS1 (LATS1 mRNA, average of 3 replicates): 1079.17
Normalised counts LATS1 (LATS1 mRNA, single replicates): 1068.6 and 1080.61 and 1088.29
Average normalised counts LATS2 (LATS2 mRNA, average of 3 replicates): 223.537
Normalised counts LATS2 (LATS2 mRNA, single replicates): 222.36 and 229.24 and 219.01
Average normalised counts LCK (LCK mRNA, average of 3 replicates): 1
Normalised counts LCK (LCK mRNA, single replicates): 1
Average normalised counts LIMK1 (LIMK1 mRNA, average of 3 replicates): 487.24
Normalised counts LIMK1 (LIMK1 mRNA, single replicates): 499.59 and 471.62 and 490.51
Average normalised counts LMTK2 (LMTK2 mRNA, average of 3 replicates): 633.213
Normalised counts LMTK2 (LMTK2 mRNA, single replicates): 615.03 and 621.04 and 663.57
Average normalised counts LMTK3 (LMTK3 mRNA, average of 3 replicates): 14.4067
Normalised counts LMTK3 (LMTK3 mRNA, single replicates): 19.66 and 8.58 and 14.98
Average normalised counts LRRK1 (LRRK1 mRNA, average of 3 replicates): 204.153
Normalised counts LRRK1 (LRRK1 mRNA, single replicates): 193.27 and 214.47 and 204.72
Average normalised counts LRRK2 (LRRK2 mRNA, average of 3 replicates): 465.12
Normalised counts LRRK2 (LRRK2 mRNA, single replicates): 461.41 and 439.47 and 494.48
Average normalised counts LTK (LTK mRNA, average of 3 replicates): 1
Normalised counts LTK (LTK mRNA, single replicates): 1
Average normalised counts LYN (LYN mRNA, average of 3 replicates): 10.41
Normalised counts LYN (LYN mRNA, single replicates): 11.48 and 10.32 and 9.43
MAK Normalised counts Average (MAK mRNA, average of 3): 7.77
MAK Normalised counts (single replicates) (MAK mRNA, replicates 1-3): 7.84 and 6.84 and 8.63
MAP2K1 Normalised counts Average (MAP2K1 mRNA, average of 3): 1481.58
MAP2K1 Normalised counts (single replicates) (MAP2K1 mRNA, replicates 1-3): 1469.45 and 1465.46 and 1509.84
MAP2K2 Normalised counts Average (MAP2K2 mRNA, average of 3): 2403.01
MAP2K2 Normalised counts (single replicates) (MAP2K2 mRNA, replicates 1-3): 2394.14 and 2328.31
MAP2K3 Normalised counts Average (MAP2K3 mRNA, average of 3): 410.613
MAP2K3 Normalised counts (single replicates) (MAP2K3 mRNA, replicates 1-3): 415.06 and 378.66 and 438.12
MAP2K4 Normalised counts Average (MAP2K4 mRNA, average of 3): 708.25
MAP2K4 Normalised counts (single replicates) (MAP2K4 mRNA, replicates 1-3): 670.48 and 728.77 and 725.5
MAP2K5 Normalised counts Average (MAP2K5 mRNA, average of 3): 322.173
MAP2K5 Normalised counts (single replicates) (MAP2K5 mRNA, replicates 1-3): 317.8 and 316.98 and 331.74
MAP2K6 Normalised counts Average (MAP2K6 mRNA, average of 3): 279.153
